Entries after “also recorded” stand apart in the source; their conditions may differ.

Here are results for one compound from patent US20230149358A1, “COMBINATION CANCER THERAPY WITH PENTAAZA MACROCYCLIC RING COMPLEX AND HORMONE THERAPY AGENT” (Galera Labs, LLC, priority 2020, published 2023).

The test system of assay [1] is MCF7-MnSOD^K68Q cells. Briefly: Ki-67 staining, MCF7-MnSOD^K68Q cells. It counts as cell-based, human. As to conditions: 5 μM GC4419 and/or 1 μM 4-hydroxy-Tam for 5 days. The method, then: MCF7-MnSOD^K68Q cells (in FIGS. 17a and 17b) and T47D-MnSOD^K68Q cells (in FIGS. 17c and 17d) were treated with 5 μM GC4419 and/or 1 μM 4-hydroxy-Tam for 5 days, and then stained for Ki-67 as well as DAPI. Quantifications of average Ki-67 intensity are shown in the bar graphs. In FIG. 17e, MCF7 and MCF7-HTR cells were implanted into both hind limbs of nude mice and tumor volumes were measured every 3 days for 6 weeks and the number of tumors that successfully implanted versus the total number of mice infected with MCF7 and MCF7-HTR as well as the average tumor weight and tumor size are shown. Representative images are shown. All experiments were done in triplicate. Error bars represent ±1 SEM. ***p<0.001.
Cells seeded on glass coverslips were fixed in 4% paraformaldehyde and then blocked with 1% BSA and 10% normal goat serum in 1×PBS. Cells were incubated with anti-Ki-67 (c-bioscience) antibody in 1×PBS followed by incubation with goat anti-rabbit IgG conjugated with Alexa Fluor 647 (Invitrogen) in 1×PBS with 5% goat serum. Cells were washed in 1×PBS, mounted, and imaged with a fluorescence microscope. Fluorescence images were captured using a laser scanning confocal microscope (Nikon A1R). The paired images in all the figures were collected at the same gain and offset settings. Post-collection processing was applied uniformly to all paired images.

Assay [2] concerns LNCaP-MnSOD^K68Q xenografts. Briefly: LNCaP-MnSOD^K68Q hindlimb xenograft growth in nude mice. It counts as in vivo. As to conditions: male nude mice; GC4419 10 mg/kg once per week, ENZ 25 mg/kg/day; 46 days. On the procedure:
(§1) In FIG. 21(a), clonogenic cell survival experiments were performed in LNCaP-ENZR (left two bars) and LNCaP-MnSOD^K68Q (right two bars) treated with ENZ, with or without GC4419 (20 μM) for 5 days. […] Tumor volumes were measured three times a week for 46 days. For each group n=10. Error bars ±1 SEM. All experiments done in triplicate. **p<0.01.
Thus, it was surmised that restoring SOD activity, using the pentaaza macrocyclic ring complex GC4419, an agent that chemically detoxifies superoxide, would reverse/convert the ENZR to a sensitive phenotype. […] The dose and pharmacokinetics for GC4419 is based on data for murine models^92-93.

Assay [3] has as its system LNCaP-MnSOD^K68Q cells. Briefly: Clonogenic cell survival, LNCaP-MnSOD^K68Q cells. It counts as cell-based. As to conditions: ENZ with GC4419 (20 μM) for 5 days. The method, then:
as §1

The subject of assay [4] is MCF-7-MnSOD^K68Q cells. As to the kind of experiment: Clonogenic cell survival after 5 Gy ionizing radiation, MCF-7-MnSOD^K68Q cells. It counts as cell-based, human. As to conditions: 5 μM GC4419 for 5 days, then 5 Gy ionizing radiation. On the procedure:
FIGS. 30a-30b are plots showing that expression of MnSOD^K68Q induces ionizing radiation resistance (IRR) in MCF7 cells. […] All experiments were done in triplicate. Error bars represent±1 SEM. ***p<0.001. Data were analyzed by a t-test.
To determine if the MnSOD-K68-Ac-ROS axis plays a role in IRR, it was hypothesized that MnSOD acetylation might play a role in how tumor cells are reprogrammed to produce a IRR phenotype. To address this idea, an established tumor cell line MCF-7 was infected with lenti-MnSOD^K68Q to induce MnSOD^K68Q expression, which was validated. MCF-7-MnSOD^WT and MCF-7-MnSOD^K68Q cells were treated without or with 5 Gy of IR.

Assay [5] concerns mice lacking Sirt3. As to conditions: IP 2 mg/kg, 30 minutes before IR; cited from earlier work.
The test system of assay [6] is head-and-neck cancer patients. As to conditions: head-and-neck cancer patients undergoing chemoradiation therapy; cited from earlier work.
Assay [7] has as its system MCF7-Cispl-R cells. Briefly: Cisplatin sensitivity, MCF7-Cispl-R cells. It counts as cell-based, human. As to conditions: MCF7-Cispl-R treated with GC4419.
Assay [8] has as its system MCF7-HTR cells. As to the kind of experiment: Clonogenic cell survival, hydroxy-Tam-resistant MCF7-HTR cells. It counts as cell-based, human. As to conditions: 5 μM GC4419 for 5 days. The method, then: Clonogenic cell survival assay. For the clonogenic survival analysis, exponentially growing cells were replated using appropriate dilutions, and clonogenic survival was evaluated after 14 days in regular growth medium. Cells were stained with crystal violet, and colonies of >50 cells were counted and utilized to calculate clonogenic survival^46.
To test parameters indicative of oxidative stress, a clonogenic assay with hydroxy-Tam and antioxidant treatments was performed. Cells were plated at a density of 50,000 cells per 60-mm dish and treated with 1 μM hydroxy-Tam (Sigma) and 5 μM GC4419 (Galera Therapeutics) for a total of 120 h. This protocol was repeated with a fresh medium change every 24 h for 5 days. On day 6, the cells were trypsinized, counted, and replated in control medium using appropriate dilutions, and clonogenic survival was evaluated.

The subject of assay [9] is MCF7-HTR cells. As to the kind of experiment: Ki-67 staining, MCF7-HTR cells. It counts as cell-based, human. As to conditions: 5 μM GC4419 and/or 1 μM 4-hydroxy-Tam for 5 days. From the text:
With respect to FIG. 16a, the data from FIG. 7i, where MCF7-HTR cells were stained for Ki-67, as well as DAPI, were counted with ImageJ and quantified for average Ki-67 intensity as shown in the bar graph. With respect to FIGS. 16b and 16c, T47D and T47D-HTR cells were stained for Ki-67 as well as DAPI, and particles in the nucleus were counted with ImageJ and quantified for average Ki-67 intensity as shown in the bar graph. In FIGS. 16d and 16e, MCF7-HTR cells, and in FIGS. 16f and 16g, T47D-HTR cells, were treated with 5 μM GC4419 and/or 1 μM 4-hydroxy-Tam for 5 days, and then stained for Ki-67 as well as DAPI. Quantifications of average Ki-67 intensity are shown in the bar graphs. All experiments were done in triplicate. Error bars represent ±1 SEM. ***p<0.001. Representative images are shown.
Cells seeded on glass coverslips were fixed in 4% paraformaldehyde and then blocked with 1% BSA and 10% normal goat serum in 1×PBS. Cells were incubated with anti-Ki-67 (c-bioscience) antibody in 1×PBS followed by incubation with goat anti-rabbit IgG conjugated with Alexa Fluor 647 (Invitrogen) in 1×PBS with 5% goat serum. Cells were washed in 1×PBS, mounted, and imaged with a fluorescence microscope. Fluorescence images were captured using a laser scanning confocal microscope (Nikon A1R). The paired images in all the figures were collected at the same gain and offset settings. […]

In assay [10] the test system is MCF7-Cispl-R cells. As to the kind of experiment: Cell ROS levels, MCF7-Cispl-R cells. It counts as cell-based, human. As to conditions: GC4419 exposure; data not shown. On the procedure: FIGS. 27a-27c are an image and graphs showing that MnSOD-Ac-K68/HIF2α dysregulation directs PanR (resistance to cancer therapeutics). […] In FIG. 27b, ROS was measured in MCF7-Cispl-R cells, compared with MCF7 cells, using an Amplex Red assay. In FIG. 27c, MCF7 and MCF7-MnSOD^K68Q cells were measured by clonogenic cell survival assays, without and with Cispl exposure, and infected with scrambled (C) or HIF2α shRNA. All experiments were done in triplicate. Error bars are ±1 SEM. * p<0.05.
Aberrant HIF2α levels promote lineage plasticity, leading to chemoresistance and metastasis. […] Thus, MCF7 cells were selected for cisplatin resistance (Cispl-R) by 3 months of exposure to 5 μM Cispl.

Consider `[Cl][Mn][Cl].c1cc2nc(c1)CN[C@H]1CCCC[C@@H]1NCCN[C@H]1CCCC[C@@H]1NC2` [GC4419], for which the Ki-67 staining result in assay [1] is listed as “reversed the increase in Ki-67 IHC staining; also recorded: decreased Ki-67 levels”; in assay [9], “exhibited decreased Ki-67 IHC staining”. Further, the “xenograft growth (tumor volume)” value in [2] is reported as “significant inhibition of xenograft growth”. Further, the “ENZ resistance phenotype (clonogenic cell survival)” value in [3] is reported as “converted to a sensitive phenotype; also recorded: reversed the ENZR”. The “ionizing radiation resistance (IRR) phenotype, clonogenic cell survival” value in assay [4] is “reversed the IRR phenotype”. Also, the liver damage result in [5] is listed as “attenuated liver damage”. Moreover, the oral mucositis result in assay [6] is “reduce oral mucositis”. In addition, in [7], the cisplatin resistance phenotype entry is given as “converted the Cispl-R cells to a sensitive phenotype”. Further, in assay [8], the “sensitivity to hydroxy-Tam (clonogenic cell survival)” value was “became sensitive to hydroxy-Tam”. In assay [10], the “cell ROS levels” value was “decreased cell ROS levels”.
